Series [1] is described as follows: pKa and log D by Avdeef-Bucher potentiometric titration. In kind it is physicochemical. The protocol:
(§1) Through Avdeef-Bucher potentiometric titration, pKa and partition coefficients (log D, pH 7.4) were determined on a Gemini Profiler instrument (pION) according to the method of Avdeef and Tsinman. pH measurements were used to determine the intrinsic solubility.

In series [2] the test system is Nrf2/ARE luciferase reporter in HepG2-ARE-C8 cells. Briefly: ARE-luciferase activity assay. The series is classed as cell-based. As to conditions: no LPS (physiological conditions). On the procedure:
HepG2-ARE-C8 cells were plated in a 96-well plate at a density of 4×10^4 cells/well and incubated overnight. The cells were then incubated with different concentrations of the test compound, with DMSO as a negative control and a luciferase cell lysis agent as a blank control. After 12 h of treatment, the medium was removed and 100 μL of pre-cooled PBS was added to each well to wash the cells. PBS was then removed and 30 μL of the luciferase cell lysis agent was added. After 15 min of lysis on ice, the cells were harvested and centrifuged, and 20 μL of the supernatant was taken for luciferase activity assay according to the protocol provided by the manufacturer (Promega, Madison, WI). The luciferase activity was measured by Luminoskan Ascent (Thermo Scientific, USA). The assay was performed in triplicate and the inductivity fold was calculated by comparing with the control.

Series [3] in a line: Drug release rate by HPLC (H2O2 activation of prodrug). The series is classed as physicochemical. On the procedure: The target compound was dissolved in DMSO to give a 10 mM stock solution, which was then stored at −20° C. The final concentration was brought to 50 μM by adding the target compound (10 mM) to phosphate buffered saline (PBS) (10 mM, pH 7.4), and H2O2 was added. The solution was well vortexed, and then incubated at 37° C. Samples were taken at appropriate time intervals and analyzed by HPLC directly after injection, and the peak areas were recorded to calculate the percentage of the compound. The procedure was repeated three times. The following Agilent 1260 HPLC and DAD detectors were used: Agilent C18 column (4.6×150 mm, 3.5 μm); mobile phase: 70% methanol; flow rate: 0.5 mL/min. A standard curve of the compound was plotted against concentration.
After treatment with 10 mM H2O2, the prodrug pro2 was activated with prolonged incubation time and the active parent compound 2 was completely released within 3 h (HPLC-determined conversion >98%, (B) of FIG. 1 and (C) of FIG. 1).

In series [4] the test system is Nrf2-ARE in RAW264.7 cells. Briefly: ARE inductivity under LPS stimulation. In kind it is cell-based, mouse.
Series [5] relates to Nrf2-ARE-driven gene transcription in RAW264.7 cells. Briefly: Real-time quantitative PCR of Nrf2, HO-1, NQO1 and GCLM. The series is classed as cell-based, mouse. As to conditions: 20 ng/mL LPS 8 h, compound 500 nM. The protocol:
The procedures were performed according to the real-time quantitative RT-PCR experimental procedures reported previously (Z. Jiang, M. Lu, Q. D. You, Discovery and Development of Kelch-like ECH-Associated Protein 1: Nuclear Factor Erythroid 2-Related Factor 2 (KEAP1:NRF2) Protein-Protein Interaction Inhibitors: Achievements, Challenges and Future Directions, J. Med. Chem., 59 (2016) 10837-10858). The primers used for qRT-PCR were as follows: Nrf2 (forward primer: AACCACCCTGAAAGCACGC, reverse primer: […]); HO-1 (forward primer: […], reverse primer: […]); NQO-1 (forward primer: CGCAGACCTT-GTGATATTCCAG, reverse primer: […]); GCLM (forward primer: […], reverse primer: […]).
To determine the effect of pro2 on Nrf2-ARE-driven gene transcription, mRNA levels of Nrf2 and three downstream genes, HO-1, NQO1 and GCLM, were examined ((A) of FIG. 4 to (D) of FIG. 4). […] The protein levels of the above genes were determined by western blot.

In a further series the test system is RAW264.7 cells. Briefly: Antioxidant capacity assays (SOD, GSH-Px, GSH/GSSG, MPO). The series is classed as cell-based, mouse. The text has this: Subsequently, to investigate the effect of pro2 on antioxidant capacity in inflammatory conditions, the activities of superoxide dismutase (SOD) and glutathione peroxidase (GPx) were examined. […] In addition, the GSH/GSSG ratio and myeloperoxidase (MPO) activity were also examined, which are two important markers indicating oxidative stress.

Series [6] concerns IL-1β and IL-6 protein in RAW264.7 cells. Briefly: Western blot of IL-1β and IL-6 protein levels. The series is classed as cell-based, mouse. As to conditions: same concentration. The protocol:
Anti-Nrf2 (ab62352) and anti-IL-1β (ab45692) antibodies were purchased from Abcam Technology (England). Anti-HO-1 (SC-136960) and anti-NQO1 (SC-271116) antibodies were purchased from Santa Cruz Biotechnology (California, USA). Anti-β-Actin (60008-1-Ig) and anti-GCLM (14241-1-AP) antibodies were purchased from Proteintech Group (USA). Cell sampling and western blot were performed as previously reported (M.-C. Lu, J.-A. Ji, Y.-L. Jiang, Z.-Y. Chen, Z.-W. Yuan, Q.-D. You, Z.-Y. Jiang, An inhibitor of the Keap1-Nrf2 protein-protein interaction protects NCM460 colonic cells and alleviates experimental colitis, Sci. Rep., 6 (2016) 26585).
On the technique in general: In western blotting, separated proteins are transferred to a membrane and probed.

Series [7] can be described thus: Aqueous solubility (pSOL). In kind it is physicochemical. On the procedure:
as §1
(§2) Potential solubility data were obtained with a pSOL model 3 instrument (pION INC, Cambridge, Massachusetts, USA). Cell membrane permeability was determined on a PAMPA Explorer instrument (pION).

Series [8] can be described thus: Parallel artificial membrane permeability assay (PAMPA). The series is classed as in vitro ADME. The protocol:
as §2
Subsequently, the permeability of cell membranes was measured by standard parallel artificial membrane permeability assay (PAMPA).
(In PAMPA a lipid-coated filter parts donor from acceptor wells.)

Series [9] can be described thus: Stability in liver microsomes (human). In kind it is in vitro ADME. On the procedure:
(3) Stability in microsomes. Isolated liver microsomes (from CD-1 male rats and human males) were used to evaluate the stability of the compound in microsomes in vitro. Ketanserin was used as a reference compound. A liver microsome solution (20 mg/mL) was added to a microcentrifuge tube containing PBS at 37° C. and the mixture was shaken for 10 min prior to assay. Then a DMSO solution (0.5 mM) containing the test compound was added. At 0 min, pre-cooled acetonitrile was added followed by an NADPH stock solution (6 mM). The plates were pre-incubated at 37° C. for 5 min. The timer started upon the addition of the NADPH stock solution (6 mM) to the plates. At 5 min, 15 min, 30 min and 45 min, pre-cooled acetonitrile was added to the wells of the respective plates to stop the reactions. After the reaction was quenched, the plates were shaken on a shaker for 10 min and then centrifuged at 5000 rpm for 15 min. The supernatant from each well was transferred to a 96-well sample plate containing ultrapure water for LC-MS/MS analysis.
A general note: Microsomes from liver hold many membrane-bound enzymes, among them those of drug oxidation.

As usually defined, the pKa is the negative logarithm of the acid dissociation constant. A word on the LogD: it is lipophilicity at a set pH, counting ionised and neutral species. In general, EC50 refers to the concentration giving half of the maximal effect. By Aqueous solubility is commonly meant the concentration that dissolves in the medium under given conditions. Read a high Aqueous solubility as much dissolved substance.

`COc1ccc(S(=O)(=O)Nc2ccc(N(CC(=O)N3CCSC3=O)S(=O)(=O)c3ccc(OC)cc3)c3ccccc23)cc1` [pro2] gave a pKa in [1] of 4.53. Besides, the “LogD at pH 7.4” value in series [1] (pH 7.4) was determined as 2.34. For the same compound, the ARE inductivity entry in series [2] was “remained almost inactive even at the highest concentration”. Besides, the “time to complete release of the active parent compound 2” value in [3] (10 mM H2O2) is given as not above 3 h. For the same compound, in series [3] (10 mM H2O2, within 3 h), the HPLC-determined conversion is reported as more than 98%. Further, the “release of the active parent compound 2” value in series [3] (H2O2 0.8 mM, 24 h incubation, HPLC) was “no less than 50%”. For the same compound, the EC50 in series [4] (Mus musculus, RAW264.7, under LPS stimulation, read-out: EC50 of ARE inductivity) worked out at 320 nM. The “inductivity of Nrf2-ARE at different concentrations of LPS” value in series [4] (RAW264.7 cells stimulated with LPS prior to administration, compound 200 nM) was “LPS concentration-dependent increase”. Also, the “transcription of Nrf2, HO-1, NQO1 and GCLM (mRNA)” value in series [5] is on record as “greatly enhanced the transcription”. Further, the “SOD and GSH-Px activity” value with RAW264.7 cells (LPS 20 ng/mL) was “restored the SOD and GSH-Px activity significantly”. Further, in the series on RAW264.7 cells (LPS exposure), the “GSH/GSSG ratio and MPO activity” value is given as “return markers to near normal”. The “LPS-induced IL-1β and IL-6 protein expression” value in series [6] was “almost completely inhibited”. Besides, the “Aqueous solubility at pH 7.4” value in series [7] was 879.6 μg/mL. The “Pe at pH 7.4” value in [8] is recorded as 6.35 10^−6 cm/s. Besides, the Papp in series [8] (pH 7.4, read-out: Pe at pH 7.4) is 6.35 ×10⁻⁶ cm/s. Moreover, the “stability in co-incubation with human liver microsomes” value in series [9] was “very stable”.

The values above are taken from patent US12383535B2, “Hydrogen peroxide-responsive KEAP1-NRF2 ppi inhibitor prodrug, and preparation method therefor” (CHINA PHARMACEUTICAL UNIVERSITY, priority 2019, dated 2025).
